Experimental data reported in patent US20150087587A1, “Process for the Synchronization of Ovulation for Timed Breeding Without Heat Detection” (priority 2003, published 2015).

Legend:
Format in all cases: in vivo, swine
postpartum sows [1] = assay: Timed injection 96 hours post-weaning and single timed insemination without estrus detection; pregnancy, embryos and CL (Example 3); details: 50 mcg deslorelin in SAIB at 96 hours post-weaning
Description: Approximately 170 postpartum sows were randomly divided into two equal groups comprised of controls and treated. Following weaning, the controls were detected for estrus and bred following the normal standard operating procedures for the farms on which they resided. The treated sows received a 50 mcg dose of deslorelin in SAIB at 96 hours post-weaning and were bred with a single insemination 28+/−2 hours later with no regard to estrus detection. The sows were examined for pregnancy by ultrasound at 21 days and slaughtered around 28 days post breeding, The entire reproductive tract was removed and corpora lutea and embryos were counted.

mature postpartum sows = assay: Intravulvar injection at estrus detection with AI in mature postpartum sows (Example 2); details: 50 mcg deslorelin in SAIB intravulvar at estrus detection
Description: Sows were assigned randomly in blocks of two to either control or to be injected intravulvar with 50 mcg of deslorelin in SAIB at the time of estrus detection for sows first detected in estrus in the a.m. and 12 hours later for those first detected in estrus in the p.m. Treated animals were bred AI upon detected estrus and again 24 hours later if still in estrus. Controls received a saline injection on first detected estrus behavior estrus detection and were bred according to the farm's normal procedures.

postpartum sows [2] = assay: Litter size and pregnancy rate after treatment in postpartum sows at three farm sites (Example 4); details: regardless of estrus detection
Source text: Postpartum sows were randomly distributed into three different groups comprised of Controls, Treatment 1, and Treatment 2, with the exception of Site 3, which was divided into two groups, Control and Treatment 2. Control sows were detected for estrus following weaning, and bred following the normal standard operating procedures for the farms on which they resided. Treatment 1 sows were detected for estrus following weaning, and received a 50 mcg dose of deslorelin in the morning when standing and were bred by AI 4 hours later and again at 24+/−2 hours later. Treatment 2 sows received a 50 mcg dose of deslorelin in SAIB at 96 or 120 hours post-weaning and were bred with a single insemination 28+/−2 hours later with no regard to estrus detection. […]

## CCNC(=O)[C@@H]1CCCN1C(=O)[C@H](CCCN=C(N)N)NC(=O)[C@H](CC(C)C)NC(=O)[C@@H](Cc1c[nH]c2ccccc12)NC(=O)[C@H](Cc1ccc(O)cc1)NC(=O)[C@H](CO)NC(=O)[C@H](Cc1c[nH]c2ccccc12)NC(=O)[C@H](Cc1cnc[nH]1)NC(=O)[C@@H]1CCC(=O)N1 [Deslorelin, deslorelin]
Postpartum sows [1]; single insemination
  Embryo Survival: 64%
Postpartum sows [1]; single insemination 28+/-2 hours later, no estrus detection
  Pregnancy Rate: 71%
Postpartum sows [1]; single insemination 28+/-2 hours later, 84 in group
  Sows Pregnant: 60
Mature postpartum sows
  Pregnancy rates, Control versus Treated (in words): no significant difference
Postpartum sows [2]
  Litter sizes (in words): normal litter sizes
